Legend:
MD4 B cells = experiment: MD4 B cell adoptive transfer, response to HEL-SRBC immunization; format: in vivo, mouse
Experimental: (§1) 2 hours before adoptive transfer, C57BL/6 recipient mice received 200 rads irradiation. […] B cells from donor mice were isolated via depletion of CD43+ cells with anti-CD43-conjugated magnetic beads (MACS anti-mouse CD43; Miltenyi Biotec). Alternatively, CD4+ T cells were isolated via CD4 positive selection (MACS anti-mouse CD4 (L3T4) Miltenyi Biotec). Resultant populations were >97% pure based on flow cytometric analyses. Donor B cells were labeled with either CellTrace Violet (Molecular Probes) or CFSE (Molecular Probes) at 5 μM for 5 minutes at room temperature prior to transfer. Donor CD4 T cells were labeled with CFSE (Molecular Probes) at 5 μM for 5 minutes at room temperature prior to transfer. 1-2×10^6 donor cells in 200 μl PBS were adoptively transferred via IV injection. 24 hours post transfer, tamoxifen was administered to activate Cre. Tamoxifen (Sigma-Aldrich) was dissolved in 100% corn oil (Sigma-Aldrich) at 20 mg/ml. Recipient mice were injected IP with 100 μl (2 mg) on two consecutive days.
(§2) Diet dose (DD) is calculated by multiplying the single daily dose (SD) by the body weight of a mouse (BW) and dividing that by the daily food intake (FI) [DD=(SD×BW)/FI].
For VH125.NOD experiments animals are placed on control chow immediately after weaning.
HEL conjugated to SRBCs was used to produce antigen for experiments with MD4 B cells. SRBCs (Colorado Serum Company) were stored in Alsever's solution at 4° C. SRBCs are washed 3 times in PBS prior to use. 1 ml of 50 mg/ml of the chemical crosslinker N-(3-Dimethylaminopropyl)-N-ethylcarbodiimide hydrochloride (Sigma-Aldrich) was added to 1 ml packed SRBCs and 15 ml of 5 mg/ml HEL (Sigma-Aldrich), mixed and rotated at room temperature for 45 minutes. Mice were immunized IP with 200 μl of a 5% HEL-SRBC in PBS. For NP4Ova-Alum immunizations, 10 mg/ml alum and 5 mg/ml NP4Ova were mixed to a final concentration of 250 μg/ml NP4Ova and 2.5 mg/ml alum and rotated for 3 hours at room temperature. […] Mice were then immunized with NP4Ova-alum IP in 200 μl/mouse, and responses were measured on day 7 and day 14 post-immunization.
Spleens were mechanically disrupted, single-cell suspensions were generated, and red blood cells were lysed with ammonium chloride TRIS. Cells were resuspended in PBS containing 1% FBS and incubated with indicated antibodies. For analysis of cell surface markers, antibodies against the following molecules were used: B220-PE (BioLegend), B220-BV786 (BD Biosciences), B220-BV510 (BioLegend), CD4-BV711 (BioLegend), CD8-BV421 (BioLegend), CD138-PECy7 (BioLegend), CD69-BV786 (BD Biosciences), CD86-PerCPCy5.5 (BioLegend). After cell surface staining, the cells were fixed and permeabilized with Cytofix/Cytoperm (BD) per manufacturer's instructions and stained with Dylight650-E4 anti-Ars/A1 idiotype (produced and conjugated in our laboratory) OR HEL-650 (produced and conjugated in our laboratory) and Alexa Fluor 488-anti-GFP (rabbit polyclonal; Life Technologies). Events were collected on a CyAn ADP (Dako) and subsequent analysis using FlowJo software (Tree Star).
For detection of IgM^a anti-Ars antibodies, microtiter plates were coated with 10 μg/ml Ars-BSA16 in PBS and blocked with 2 mg/ml BSA in PBS 0.05% Tween-20. For detection of IgM^a anti-HEL antibodies, microtiter plates were coated with 10 μg/ml HEL in PBS and blocked with 2 mg/ml BSA in PBS 0.05% Tween-20. For detection of total NP-specific IgM and IgG, microtiter plates were coated with 20 μg/ml NP27BSA and blocked with 2 mg/ml BSA in PBS 0.05% Tween-20. For detection of high affinity NP-specific IgM and IgG, microtiter plates were coated with 20 μg/ml NP2BSA and blocked with 2 mg/ml BSA in PBS 0.05% Tween-20. Serial dilutions of mouse serum in PBS were added and incubated overnight at 4° C. Ars/A1-derived IgM^a antibodies and MD4-derived HEL IgM^a antibodies were detected with biotinylated DS.1 anti-IgM^a (BD Pharmingen) in PBS, followed by Streptavidin-HRP (Thermo Fisher Scientific). […]

OT-II CD4 T cells = experiment: OT-II CD4 T cell adoptive transfer, response to OVA+P:IC immunization; format: in vivo, mouse; conditions: 0.9375 mg/kg chow vs vehicle control, five days post-immunization
Experimental: as §1, §2
For VH125.NOD experiments animals are placed on control chow immediately after weaning. […]

[1] = 0.9375 mg/kg chow vs vehicle control, 5 days post immunization
[2] = 3.75 mg/kg and 30 mg/kg chow vs vehicle control, 5 days post immunization

CC[C@H](Nc1ncnc2nc[nH]c12)c1nc2cccc(F)c2c(=O)n1-c1ccccc1 [idelalisib, 5-fluoro-3-phenyl-2-[(1S)-1-(7H-purin-6-ylamino)propyl]-4(3H)-quinazolinone]
HEL-specific ASCs/spleen (MD4 B cells; [1]): equivalent | IgM anti-HEL antibody response (MD4 B cells; [1]): equivalent | proliferation of recovered MD4 B cells (MD4 B cells; 3.75 mg/kg and 30 mg/kg chow): proliferated less than in controls | recoverable transferred MD4 B cells in the spleen (MD4 B cells; 3.75 mg/kg and 30 mg/kg chow): significant decreases | IgM anti-HEL antibody response (MD4 B cells; [2]): significantly reduced | number of ASCs/spleen (MD4 B cells; [2]): reduced | proliferation (CFSE) of OT-II T cells (OT-II CD4 T cells): equivalent levels | upregulation of the activation marker CD44 on OT-II T cells (OT-II CD4 T cells): equivalent levels

Source: US11701361B2, “p110-delta inhibitors treat and prevent autoimmunity while sparing the ability to mount an immune response to exogenous immunogens” (THE REGENTS OF THE UNIVERSITY OF COLORADO, priority 2018, dated 2023)
